Bridge positions count the residues as written; N and C are the ends. Square brackets hold non-standard residues; d marks the D form. Peptide text beside a SMILES is read from it.

The values that follow come from US11046730B2, “Antimicrobial compositions” (The Regents of the University of California, priority 2016, dated 2021).

Series [1] relates to Gram-positive bacteria. The series can be described thus: minimum inhibitory concentration (MIC) assays against four types of Gram-positive bacteria. The settings on record: for MIC: four Gram-positive bacteria studied, homologues as TFA salts; for antibiotic activity in MIC assays, result in words: Gram-positive bacteria, mostly compared with Arg10-teixobactin; for MIC values lower than those of Arg10-teixobactin (fold): relative to Arg10-teixobactin; for MIC values: four species of Gram-positive bacteria. The series is classed as cell-based. The source says:
The antibiotic activity of Arg10-teixobactin and homologues was investigated in minimum inhibitory concentration (MIC) assays against four types of Gram-positive bacteria, as well as control substances, in order to elucidate the importance of various functionalities within teixobactin analogues and guide the rational design of new antimicrobial compounds (as summarized in Tables 1, 2 and 3 (FIGS. 5A, 5B, and 5C respectively). These MIC studies used vancomycin as a positive control and the Gram-negative bacterium E. coli as a negative control.

Series [2] is described as follows: gel formation / solubility. The series is classed as physicochemical. The settings on record: propensity to form a gel. Here is the method:
In addition, according to many embodiments of the invention, teixobactin homologues can be functionalized at position 9 to improve solubility for easier or more efficient drug administration. For example, Arg10-teixobactin has the propensity to form a gel at concentrations as low as 5 mg/mL. This poor solubility will hamper the ability of Arg10-teixobactin or any other teixobactin derivative to be used as a drug because it will impede intravenous administration. […] More specifically, in some embodiments of the invention the water solubility of teixobactin analogues can be improved by functionalization of position 9 with polyethylene glycol (PEG) derivatives. In one embodiment, Ala9 is replaced with a PEG-containing amino acid, such as Gln(PEG6OMe), the derivative of Glu, in which the side chain has been coupled to H2NCH2CH2(OCH2CH2)5OMe.

Series [3] relates to Gram-positive bacteria. The settings on record: literature structure-activity studies; cited from earlier work.

The term MIC denotes the lowest concentration found to suppress growth. Take `CC[C@H](C)[C@H](NC(=O)[C@@H](Cc1ccccc1)NC)C(=O)N[C@@H](CO)C(=O)N[C@H](CCC(N)=O)C(=O)N[C@@H](C(=O)N[C@H](C(=O)N[C@@H](CO)C(=O)N[C@H]1C(=O)N[C@@H](C)C(=O)N[C@@H](CCCNC(=N)N)C(=O)N[C@@H]([C@@H](C)CC)C(=O)O[C@H]1C)[C@@H](C)CC)[C@@H](C)CC` [Arg10-teixobactin]: in series [1], the MIC was 1 to 4 µg/mL. Further, the “concentration at which a gel forms” value in series [2] is reported as no less than 5 mg/mL. Besides, the “activity relative to teixobactin in MIC assays” value in series [3] is recorded as “about an order of magnitude less active”.

Consider `CC[C@H](C)[C@H](N)C(=O)N[C@@H](CO)C(=O)N[C@H]1C(=O)N[C@@H](C)C(=O)N[C@@H](CCCNC(=N)N)C(=O)N[C@@H]([C@@H](C)CC)C(=O)O[C@H]1C` [short-Arg10-teixobactin] (H-IS[dT]ARI; ester 3-C), for which, in series [1], the MIC is greater than 32 µg/mL.

Ac-Δ1-5-Arg10-teixobactin: the “antibiotic activity in MIC assays, result in words” value (“antibiotic activity in MIC assays” below) in series [1] is “inactive”.

Regarding Ala3,Lys10-teixobactin, the “antibiotic activity in MIC assays” value in series [1] is recorded as “diminished the activity of position 10 lysine analogue”.

As to Ala7,Arg10-teixobactin, the “antibiotic activity in MIC assays” value in series [1] is “greatly diminished activity”.

Turning to Arg10Lys11-teixobactin, the “antibiotic activity in MIC assays” value in series [1] was “loss of activity”.

On to Chg6,Arg10,Chg11-teixobactin, for which, in series [1], the “antibiotic activity in MIC assays” value is “slightly greater activity than Arg10-teixobactin” and the “MIC values lower than those of Arg10-teixobactin (fold)” value was “lower by a factor of two”.

As to D-Dap8,Arg10-teixobactin, the “antibiotic activity in MIC assays” value in series [1] is on record as “comparable activity to Arg10-teixobactin”.

D-allo-Ile11,Arg10-teixobactin: the “antibiotic activity in MIC assays” value in series [1] was “half as active”.

Consider Glu(PEG-Biotinyl)9,Lys10-teixobactin, for which, in series [1], the MIC values is listed as 2-16 micrograms/mL.

In the case of Lys6Arg10-teixobactin, the “antibiotic activity in MIC assays” value in series [1] is on record as “loss of activity”.

Turning to Lys9Arg10-teixobactin, the “antibiotic activity in MIC assays” value in series [1] (listed as Lys9,Arg10-teixobactin) is “proven activity”.

Lys10-teixobactin: in series [1], the “antibiotic activity in MIC assays” value is “comparable to those of vancomycin” and the “MIC values lower than those of Arg10-teixobactin (fold)” value is recorded as 2-4 times.

With Lys(Mca)9,Lys10-teixobactin, the MIC values in series [1] is recorded as 1-8 micrograms/mL.

As for Orn10-teixobactin, the “antibiotic activity in MIC assays” value in series [1] was “excellent to satisfactory antimicrobial activity”.

For “dodecanoyl-Δ1-5-Arg10-teixobactin [lipobactin 1]”, in series [1], the “antibiotic activity in MIC assays” value was “activity close to that of Arg10-teixobactin”.

As for ent-Arg10-teixobactin, in series [1], the “antibiotic activity in MIC assays” value is “comparable activity to Arg10-teixobactin”.
